According to the OPERA property sets (Mansouri et al. 2018):
Peptide text beside a SMILES is read from it.

Row | SMILES | logP
1 | CCCCNc1ccc(C(=O)OCCOCCOCCOCCOCCOCCOCCOCCOCCOC)cc1 | 2.45
2 | CCC(=O)OC1(C(C)=O)C(C)CC2C3CCC4=CC(=O)C=CC4(C)C3(F)C(=O)CC21C (stereo unspecified) | 3.09
3 | NC(=O)c1ccoc1 | 0.09
4 | C=CCOc1ccccc1Cc1cnc(N)nc1N | 2.31
5 | C=C(Br)CC1(C(C)CCC)C(=O)NC(=O)NC1=O (stereo unspecified) | 2.09
6 | Brc1ccc(-c2ccc(Br)cc2)cc1 | 5.72
7 | N#Cc1ccc([N+](=O)[O-])cc1 | 1.19
8 | Cn1cnc([N+](=O)[O-])n1 | -0.68
9 | NS(=O)(=O)c1ccc(I)cc1 | 1.59
10 | CSCS(=O)CC(CO)NC(=O)C=Cc1c(C)[nH]c(=O)[nH]c1=O (stereo unspecified) | -1.71
11 | Cc1cccc2cc[nH]c12 | 2.56
12 | CN(C(=O)c1ccccc1)c1ccccc1 | 2.36
13 | Oc1cccc(C(F)(F)F)c1 | 2.95
14 | CC(=O)c1cccc(C#N)c1 | 1.16
15 | Oc1cccc2c(Cl)ccnc12 | 2.67
16 | CNC(=O)Oc1cc(C)c(Cl)cc1Cl | 3
17 | CCN(CC)C(=O)c1ccccc1 | 1.25
18 | Clc1cc(Cl)cc(Cl)c1 | 4.19
19 | FC(F)(F)c1nc2ccc(Cl)cc2[nH]1 | 3.39
20 | O=S(=O)(Cc1ccccc1)c1ccccc1 | 2.05
21 | CCc1nnc(N)o1 | -0.3
22 | OC[C@H]1O[C@@H](n2cnc3c(O)ncnc32)[C@H](O)[C@@H]1O | -2.1
23 | CC(=O)N(C)c1ccc(O)cc1 | 0.61

Row | SMILES | logP
24 | CCCCSC1=CC(=O)c2ccccc2C1=O | 3.29
25 | Cc1cc(Cl)ccc1NC1=NCCN1 | 1.8
26 | CSc1ccc2c(c1)N(CCC1CCCCN1C)c1ccccc1S2 (stereo unspecified) | 5.9
27 | O=C(O)c1c2ccccc2cc2ccccc12 | 3.85
28 | NS(=O)(=O)c1ccc2ncccc2c1 | 0.56
29 | O=Cc1ccco1 | 0.41
30 | N#CCNc1ccccc1C(N)=O | 0.5
31 | CCc1ccc(N2C(=O)CCC2=O)cc1 | 1.1
32 | NCCCCc1ccncc1 | 0.86
33 | Nc1cccc(OC(=O)c2ccc(N)cc2O)c1 | 2.08
34 | CCCCCOC1OC(CO)C(O)C(O)C1O (stereo unspecified) | -0.42
35 | CC[C@H](C)C(=O)O[C@H]1C[C@H](O)C=C2C=C[C@H](C)[C@H](CC[C@@H]3C[C@@H](O)CC(=O)O3)[C@H]21 | 2.42
36 | CCCCC#N | 1.12
37 | CC(C)(C)NC[C@H](O)COc1ccccc1C1CCCC1 | 4.15
38 | c1ccc(-c2ccc(NCCN3CCOCC3)nn2)cc1 | 1.85
39 | Clc1cc(Cl)c(Cl)nc1Cl | 3.32
40 | Oc1cc(O)c2ccccc2c1 | 1.97
41 | CC(C)CC(=O)NC(N)=O | 0.45
42 | Nc1ccc(F)cc1F | 1.54
43 | CC(=O)NC(Cc1c[nH]c2ccccc12)C(=O)NCC(=O)NC(Cc1ccccc1)C(N)=O (stereo not drawn) (Ac-Trp-Gly-Phe-NH2; configuration not given here) | 0.99
44 | O=C(O)C(c1ccccc1)n1cccc1 (stereo unspecified) | 1.57
45 | COc1ccc(N2C(=O)CCC2=O)cc1 | 0.15
46 | COC(=O)CC#N | -0.47

Row | SMILES | logP
47 | NCCC(N)C(=O)O (stereo unspecified) | -4.64
48 | CCCCCCC1(CC)C(=O)NC(=O)NC1=O | 2.46
49 | O=C1CCC(=O)N1c1cccc(I)c1 | 1.39
50 | NC(=O)c1ncn2c(=O)n(CCCl)nnc12 | -0.47
51 | ON=Cc1ccccc1 | 1.85
52 | CCOS(=O)(=O)OCC | 1.14
53 | OC[C@@H](O)[C@@H](O)CO | -2.29
54 | CCOc1ccc(NC(=O)OC2CCCC2)cc1OCC | 3.33
55 | O=NN1CCSCC1 | 0.4
56 | Nc1ccccc1Cl | 1.9
57 | CCC(C)N(C(=O)SCc1ccccc1)C(C)CC (stereo unspecified) | 4.4
58 | CCCCOc1ccc(CC(=O)NO)cc1 | 2.08
59 | O=C(C(=O)c1ccccc1)c1ccccc1 | 3.38
60 | CN1C(=O)CN=C(c2ccc(Cl)cc2)c2cc(F)ccc21 | 3.1
61 | O=C1NCN(c2ccccc2)C12CCN(CCCC(c1ccc(F)cc1)c1ccc(F)cc1)CC2 | 5.86
62 | CN1CCN(Cc2ccc(C(=O)OCn3ncc4c(=O)[nH]cnc43)cc2)CC1 | 1.47
63 | CN(C)c1ccc2c(c1)C(=O)N(O)C2=O | 1.27
64 | Cc1cc(C)nc(C)c1 | 1.88
65 | CCOP(=S)(OCC)Oc1nc(Cl)n(C(C)C)n1 | 3.82
66 | Nc1nc(N)nc(-c2cccc(F)c2)n1 | 1.73
67 | OCC(O)COc1ccccc1 (stereo unspecified) | 0.7
68 | Cc1cc(Cl)cc(Cl)c1NC1=NCCN1 | 2.38
69 | O=C(O)Cc1ccc(OCCc2ccccc2)c(Cl)c1 | 3.53

Row | SMILES | logP
70 | CCCCCCCCCCCCOS(=O)(=O)[O-].[Na+] | 1.6
71 | CN(C)C(=O)Nc1ccc([N+](=O)[O-])cc1 | 1.51
72 | c1ccc2cnncc2c1 | 0.57
73 | FC(F)F | 0.64
74 | COc1ccc(C=CC(=O)O)cc1OC | 2.34
75 | Cc1ccc(Cc2c[nH]c(NCCSCc3ccc(CN(C)C)o3)nc2=O)cn1 | 2.06
76 | Nc1ccc(S(=O)(=O)Nc2ccccc2Cl)cc1 | 2
77 | CC(=O)N[C@H](C(=O)N[C@@H](C)C(=O)N[C@@H](C)C(N)=O)C(C)C | -1.4
78 | COP(=O)(OC)OC | -0.65
79 | N#Cc1cccc(C#N)c1 | 0.8
80 | Cc1cccc(C)c1C | 3.66
81 | CCOC=O | 0.23
82 | CC(=O)C(=Cc1ccc(C)cc1)C(C)=O | 2.14
83 | CCCNC(=O)NS(=O)(=O)c1ccc(Cl)cc1 | 2.27
84 | c1ccc(N(c2ccccc2)c2ccccc2)cc1 | 5.74
85 | CNC(=NC#N)NCCSCc1ncccc1OC | 0.97
86 | CC(=O)[C@@]1(O)CC[C@H]2[C@@H]3CCC4=CC(=O)CC[C@]4(C)[C@H]3CC[C@@]21C | 3.17
87 | O=C(O)CCCl | 0.41
88 | NC1=CC(=O)c2ccccc2C1=O | 1.77
89 | CN(C)C(N(C)C)=S(I)c1c(Cl)cccc1Cl (stereo unspecified) | 0
90 | COc1ccc(I)cc1Cc1cnc(N)nc1N | 2.7
91 | CNC(=O)c1ccccc1C(=O)c1ccccc1 | 2.09
92 | CN1CCN(CCCN2c3ccccc3Sc3ccc(C(F)(F)F)cc32)CC1 | 5.03

Row | SMILES | logP
93 | OC(c1ccccc1)(c1cncnc1)c1ccc(Cl)cc1Cl (stereo unspecified) | 2.56
94 | Nc1nc2ccccc2[nH]1 | 0.91
95 | CN(C)Cc1ccccc1 | 1.98
96 | CCCN(CCC)c1c([N+](=O)[O-])cc(C(F)(F)F)cc1[N+](=O)[O-] | 5.34
97 | CN(C)C(N(C)C)=S(I)c1ccc(Cl)c(Cl)c1Cl (stereo unspecified) | 0.95
98 | NCCCCc1cccnc1 | 0.88
99 | COc1ccccc1C=C(C(C)=O)C(C)=O | 1.73
100 | O=[N+]([O-])c1cccc2ccccc12 | 3.19
101 | Cc1cc(C#N)ccn1 | 0.81
102 | ClCCc1ccccc1 | 2.95
103 | CN(C)Cc1cccnc1 | 0.49
104 | Cn1cccc1C=NNC(=O)Nc1ccccc1 | 2.71
105 | COc1ccc(S(N)(=O)=O)cc1 | 0.47
106 | Cc1cccnc1 | 1.2
107 | CC(C)NCC(O)c1ccc(Cl)c(Cl)c1 (stereo unspecified) | 3.32
108 | COP(=S)(OC)Oc1ccc(Cl)cc1C#N | 3.41
109 | CN(C)N=O | -0.57
110 | CCCCSC#N | 2.03
111 | COc1c(C)ncc(CO)c1CO | -0.1
112 | CC(=O)Oc1cccc(Cl)c1 | 2.32
113 | Clc1cccc(-c2ccccc2)c1 | 4.58
114 | O=C(O)Cc1c[nH]c2ccccc12 | 1.41
115 | CCC1C(=O)NC(=O)NC1=O | -0.35

Row | SMILES | logP
116 | Cc1cccc(S(I)=C(N(C)C)N(C)C)c1 (stereo unspecified) | -0.14
117 | CC(=O)Oc1cccc(F)c1 | 1.74
118 | COP(=O)(OC)Oc1ccc([N+](=O)[O-])c(C(C)C)c1 | 2.57
119 | COC(=O)CCC(NC(=O)c1ccc(N(C)Cc2cnc3nc(N)nc(N)c3n2)cc1)C(=O)OC (stereo unspecified) | 0.54
120 | CCCCCC1=Nc2cc(Cl)c(S(N)(=O)=O)cc2S(=O)(=O)N1 | 2.01
121 | O=[N+]([O-])c1ccc2c(c1)c([N+](=O)[O-])cc[n+]2[O-] | 0.9
122 | CCc1cccc(OC(=O)NC)c1 | 2.2
123 | CCCCCOc1cccc(O)c1 | 3.63
124 | CCOP(=O)(OCC)Oc1cc(C)nc(C(C)C)n1 | 2.07
125 | NC(=S)c1ccccn1 | 1.24
126 | Cc1c(I)c(=O)n(-c2ccccc2)n1C | 1.27
127 | c1ccc2c(c1)[nH]c1ccccc12 | 3.72
128 | CCNc1nc(NCC)nc(SC(F)F)n1 | 3.28
129 | Clc1ccc(Cl)c(Cl)n1 | 2.77
130 | COc1cc2c(c(OC)c1OC)-c1ccc(=O)c(OC)cc1C(NC(C)=O)CC2 (stereo unspecified) | 1
131 | CNC1CC2CCC1c1ccccc12 (stereo unspecified) | 2.68
132 | COc1cc(CCN)cc(OC)c1Br | 2.03
133 | Nc1nc(N)nc(-c2ccccc2)n1 | 1.36
134 | Oc1ccc(Cl)c(O)c1 | 1.8
135 | COc1cc(NC(=O)NC(=N)N)ccc1C#N | 1.28
136 | Oc1ccc(Oc2ccccc2)cc1 | 3.35
137 | CC(C)Oc1cccc(COC(=O)N(C)C)c1 | 3.03
138 | COC(=O)C(=Cc1ccccc1)C(=O)OC | 2.24

Row | SMILES | logP
139 | CN(C)c1cccc(O)c1 | 1.56
140 | NNC(=O)c1cccc(I)c1 | 1.53
141 | COC(C)=O | 0.18
142 | O=[N+]([O-])c1cc(Br)c(O)c(Br)c1 | 3.57
143 | CCCCC(C)(C)c1ccc(C2CCCC(O)C2)c(O)c1 (stereo unspecified) | 5.43
144 | NCc1ccc([N+](=O)[O-])cc1 | 1.06
145 | c1ccc(CNc2ccccc2)cc1 | 3.13
146 | O=C(c1ccccc1)c1ccncc1 | 1.98
147 | O=C(O)c1c(Cl)cccc1Cl | 2.23
148 | O=C(O)c1cccc(O)c1 | 1.5
149 | CC(=O)OCC1=C(C(=O)O)N2C(=O)C(NC(=O)COc3ccccc3)C2SC1 (stereo unspecified) | 0.26
150 | O=C(O)C(c1ccc(-c2ccccc2)cc1)C(O)c1ccccc1F (stereo unspecified) | 3.77
151 | CCCOC/C(=N\c1ccc(Cl)cc1C(F)(F)F)n1ccnc1 | 1.4
152 | CCCCOC(=O)c1cc(O)c(O)c(O)c1 | 2.41
153 | CC(C)c1ccccc1OC(=O)N(C)C | 2.65
154 | O=C(CN1CCCCC1)Nc1ccccc1 | 2.71
155 | CC1Nc2cc(Cl)c(S(N)(=O)=O)cc2S(=O)(=O)N1 (stereo unspecified) | 0.08
156 | Cc1cccc2sc3nncn3c12 | 1.7
157 | Nc1ccnc2c([N+](=O)[O-])cccc12 | 1.31
158 | CON(C)C(=O)Nc1cccc([N+](=O)[O-])c1 | 1.64
159 | O=P1(NCCCl)OCCCN1CCCl (stereo unspecified) | 0.86
160 | CC(=O)c1cccc(O)c1 | 1.39
161 | N#Cc1cccc(O)c1 | 1.7
